Here are results for 24 compounds from patent US20020147353A1, “Novel flavonoids” (Vereniging christelijk wetenschappelijk anderwijs, priority 1999, published 2002).

The subject of test [1] is iron/ascorbate induced lipid peroxidation. As to the kind of experiment: Lipid peroxidation (LPO) model, heat-treated hepatic microsomes, TBA reactive substances. Type of test: biochemical. Particulars: rat hepatic microsomes, reaction started with 10 uM FeSO4; mean ± s.e.m., n = 3-5. As for the experimental part:
Experiment 1: Lipid Peroxidation Model
Preparation of hepatic microsomes.
Male Wistar rats (200-220 g) obtained from Harlan Nederland B.V. (Horst, The Netherlands) were sacrificed by decapitation. Livers were removed and homogenized in ice-cold phosphate buffer (50 mM+0.1 mM EDTA, pH=7.4, 1:2 w/v). The homogenate was centrifuged at 10 000× g (20 min at 4° C.). Subsequently, the supernatant was centrifuged at 100 000× g for 60 min (4° C.). The pellet was resuspended in phosphate buffer and centrifuged again at 100 000× g (60 min, 4° C.). Finally the microsomal pellet was resuspended in phosphate buffer (2 g liver/ml) and 1 mL aliquots were stored at −80° C.
Microsomes were thawed and resuspended in ice-cold Tris-HCl buffer (50 mM, pH=7.4 at 37° C.) and washed by centrifugation. The pellet was resuspended in 2 mL 50 mM Tris-HCl buffer and heated to 100° C. for at least 2 min to remove all enzymatic factors just before resuspending and diluting it in ice-cold Tris buffer to 1.5 mg/mL.
Stock solutions of the flavonoids were freshly prepared in nitrogen-purged DMSO and nanopure water (1:1) just before use. The reaction was started by adding 10 uM freshly prepared FeSO4 in nitrogen-purged nanopure water. LPO was assayed by measuring thiobarbituric acid (TBA) reactive substances. At t=0, 5, 10, 15, 30, 45 and 60 min an 0.3 mL aliquot of the incubation was mixed with 2 mL of an ice-cold TBA-trichloroacetic acid-HCl-butylhydroxytoluene (BHT) solution to stop the reaction. After heating and centrifugation the absorbance at 535 vs 600 nm was determined. The TBA-trichloroacetic acid-HCl-butylhydroxytoluene solution was prepared by dissolving 41.6 mg TBA/10 ml trichloroacetic acid (16.8% w/v in 0.125 N HCl). To 10 ml TBA-trichloroacetic acid-HCl 1 ml BHT (1.5 mg/ml ethanol) was added.
The IC50 was determined by measuring the % LPO inhibition at several concentrations and interpolating the 50% inhibition point.

A short description of test [2]: TEAC model (Trolox equivalent antioxidant capacity). The settings on record: concentration of Trolox equivalent to 1 mM test compound; mean ± S.D., n = 3-5. The procedure:
A solution of 2,2′-azino-bis(3-ethylbenzthiazoline-6-sulfonic acid) (1.23 mg/mL) and azobisamidinepropane (3.96 mg/mL) in 50 mM phosphate buffer (pH=7.4) was heated at 70° C. for 20 min. The amount of ABTS radicals was measured by determination of the absorbance at 734 nm.
Stock solutions of the flavonoids were freshly prepared in nitrogen-purged DMSO and nanopure water (1:1) just before use. A calibration curve of Trolox ((+/−)-6-hydroxy-2,5,7,8-tetramethyl-chroman-2-carboxylic acid) was made in a concentration range from 0 to 20 μM. A mixture of 50 μL test compound and 950 μL ABTS^−+ solution was incubated at 37° C. for 5 min. Subsequently the absorbance at 734 nm was determined on a UV/VIS Spectrophotometer.
The antioxidant-induced decrease in absorbance is directly related to the antioxidant capacity of the compound (solution) being tested.
The Trolox equivalent antioxidant capacity (TEAC) is defined as the concentration (mM) of Trolox having an antioxidant capacity equivalent to 1 mM of the test compound.

For a further test, the system named is OVCAR-3 cells. As to the kind of experiment: Antitumor activity of flavonoids, SRB growth inhibition assay. Type of test: cell-based. Particulars: 72 h. As for the experimental part:
Experiment 6: Antitumor Activity of Flavonoids
Next to the use of flavonoids as medicaments in free radical mediated diseases, the presence of anti-tumor activity has been reported. Quercetin is the best known example (Molnar et al. Neoplasma, 28: 11-17 (1981)). Because of the possible use of these compounds in chemotherapy, it was checked whether the compounds affected cell growth.
On day 0 cultured OVCAR-3 cells were plated at a density of 5000 cells/well. After 24 h (day 1) the example compounds were added and after incubation of 72 h at 37° C. (day 4), growth inhibitory effects were evaluated with the standard SRB (sulforhodamine B) assay (Skehan et al. J. Natl. Cancer Inst., 82: 1107-1112 (1990)).

The test system of test [3] is isolated mouse left atrium. The test is described as follows: Isolated mouse left atrium model: protection against doxorubicin-induced negative inotropy. More on the design: key: NP: No protection. The settings on record: 250 μM flavonoid with 35 μM doxorubicin, electrically paced mouse left atrium. As for the experimental part:
Experiment 3: Isolated Mouse Left Atrium Model
In order to determine the cardioprotective properties of the compounds in vitro, the protection against doxorubicin-induced negative inotropy was studied, using the isolated mouse left atrium model.
The example compounds were tested for their protective effect on the negative inotropic action of doxorubicin on the isolated mouse left atrium. The testing model has been described earlier (de Jong et al.Ress Comm Chem Pathol Pharmacol 68, 275-289 (1990). In short, left atria were isolated from male Balb/c mice (18-22 g) and stimulated with square wave pulses of 3 ms duration at a frequency of 4 Hz. Incubation with […] doxorubicin causes a decrease in inotropy of 50% (after 1 h). Atria were incubated with 35 μM doxorubicin and 250 μM flavonoid. Inotropy was measured and expressed as % basal contractile force relative to t=0.

A word on the IC50: it is the concentration needed to halve the response being measured.

On to `O=c1cc(-c2ccc(O)c(O)c2)oc2cc(O)ccc12` [Compound 8a, 3′,4′,7-trihydroxyflavone], for which the IC50 in test [1] was 11 ± 1.3 µM. Further, the TEAC in test [2] is 4.3 ± 0.2 mM.

The compound `O=c1cc(-c2ccc(O)c(O)c2)oc2cc(OCCO)ccc12` [Compound 8c, 3′,4′-dihydroxy-7-hydroxyethoxyflavone] registered an IC50 in test [1] of 16.4 ± 1.7 µM. Further, in test [2], the TEAC is reported as 4.3 ± 0.7 mM.

For `C[N+](C)(C)CCCOc1ccc2c(=O)cc(-c3ccc(O)c(O)c3)oc2c1` [Compound 8d, 3′4′-dihydroxy-7-(3-trimethylaminopropoxy)flavone], in test [1], the IC50 was determined as 37.3 ± 2.4 µM. The TEAC in test [2] is listed as 1.9 ± 0.3 mM.

For the compound `CN(C)CCCOc1ccc2c(=O)cc(-c3ccc(O)c(O)c3)oc2c1` [Compound 8e, 3′,4′-dihydroxy-7-(3-dimethylaminopropoxy)flavone], in test [1], the IC50 was 8.1 ± 1.1 µM. For the same compound, the TEAC in test [2] was 2.9 ± 0.4 mM.

For the compound `O=c1c(O)c(-c2ccc(O)c(O)c2)oc2ccccc12` [Compound 9a, 3′3,3′,4′-trihydroxyflavone], the IC50 in the test with OVCAR-3 cells was 21 ± 2.4 µM; in test [1], 1.8 ± 1 µM. Further, in test [3], the “Atrium protection (250 μM)” value is “NP^1”. Moreover, the TEAC in test [2] was 4.5 ± 0.5 mM.

For `COc1c(-c2ccc(O)c(O)c2)oc2ccccc2c1=O` [Compound 9b, 3′4′-dihydroxy-3-methoxyflavone], the IC50 is 2.2 ± 0.4 µM in the test on OVCAR-3 cells and 1.3 ± 0.7 µM in test [1]. The “Atrium protection (250 μM)” value in test [3] is recorded as “NP”. Moreover, the TEAC in test [2] amounted to 4.4 ± 0.3 mM.

Consider `O=c1c(OCCO)c(-c2ccc(O)c(O)c2)oc2ccccc12` [Compound 9c, 3′,4′-dihydroxy-3-hydroxyethoxyflavone], for which the IC50 in the test with OVCAR-3 cells (Homo sapiens) is 44.2 ± 20.1 µM; in test [1], 0.6 ± 0.1 µM. Further, the “Atrium protection (250 μM)” value in test [3] is reported as “NP”. Further, in test [2], the TEAC amounted to 4.4 ± 0.4 mM.

Regarding `O=C(O)COc1c(-c2ccc(O)c(O)c2)oc2ccccc2c1=O` [Compound 9d, 3′4′-dihydroxy-3-(2-ethoxycarboxylic acid)flavone], in test [1], the IC50 came out at 6.5 ± 1 µM. In test [3], the “Atrium protection (250 μM)” value was “NP”. Moreover, in test [2], the TEAC was 7.6 ± 0.6 mM.

Regarding `CN(C)CCCOc1c(-c2ccc(O)c(O)c2)oc2ccccc2c1=O` [Compound 9e, 3′,4′-dihydroxy-3-(3-dimethylaminopropoxy)flavone], the IC50 in test [1] was 1 ± 0.1 µM. Moreover, the “Atrium protection (250 μM)” value in test [3] is “NP”. The TEAC in test [2] is 3.4 ± 0.4 mM.

In test [1], `C[N+](C)(C)CCCOc1c(-c2ccc(O)c(O)c2)oc2ccccc2c1=O` [Compound 9f, 3′4′-dihydroxy-3-(3-trimethylaminopropoxy)flavone] displayed an IC50 of 1.2 ± 0.3 µM. Besides, the “Atrium protection (250 μM)” value in test [3] is “NP”. In addition, the TEAC in test [2] came to 4.2 ± 0.2 mM.

On to `C[N+](C)(C)CCCCCCOc1c(-c2ccc(O)c(O)c2)oc2ccccc2c1=O` [Compound 9g, 3′4′-dihydroxy-3-(6-trimethylaminohexyloxy)flavone], for which 1.4 ± 0.3 µM corresponded to half-maximal inhibition in test [1] (IC50). Also, the “Atrium protection (250 μM)” value in test [3] is listed as “NP”. Besides, the TEAC in test [2] is reported as 4.3 ± 0.6 mM.

In the case of `C[N+](C)(C)CCCCCCCCOc1c(-c2ccc(O)c(O)c2)oc2ccccc2c1=O` [Compound 9h, 3′4′-dihydroxy-3-(8-trimethylaminooctyloxy)flavone], in test [1], the half-inhibitory concentration (IC50) was 1 ± 0.3 µM. In addition, in test [3], the “Atrium protection (250 μM)” value is “NP”. In test [2], the TEAC was 3.3 ± 0.6 mM.

The compound `C[C@@H]1O[C@@H](OC[C@H]2O[C@@H](Oc3c(-c4ccc(O)c(O)c4)oc4ccccc4c3=O)[C@H](O)[C@@H](O)[C@@H]2O)[C@H](O)[C@H](O)[C@H]1O` [Compound 9j, 3′,4′-dihydroxy-3-rutinoseflavone] yielded an IC50 in test [1] of 15.7 ± 4.8 µM. In addition, in test [3], the “Atrium protection (250 μM)” value is “NP”. The TEAC in test [2] is 4.3 ± 0.3 mM.

Turning to `COc1c(-c2ccc(O)c(O)c2)oc2cc(O)ccc2c1=O` [Compound 10b, 3-methoxy-7,3′,4′-trihydroxyflavone], the results for the IC50 (in the test with OVCAR-3 cells (Homo sapiens); in test [1]) were 15.8 ± 1.3 µM and 1.6 ± 0.7 µM, respectively. For the same compound, the “Atrium protection (250 μM)” value in test [3] is given as “NP”. In addition, the TEAC in test [2] was 5.9 ± 0.7 mM.

Regarding `O=c1c(OCCO)c(-c2ccc(O)c(O)c2)oc2cc(O)ccc12` [Compound 10c, 3-hydroxyethoxy-7,3′,4′-trihydroxyflavone], half-maximal inhibition in test [1] (IC50) required 21.7 ± 6.1 µM. Also, in test [3], the “Atrium protection (250 μM)” value is on record as 13%. For the same compound, the TEAC in test [2] was determined as 3.4 ± 0.2 mM.

The compound `C[N+](C)(C)CCCc1c(-c2ccc(O)c(O)c2)oc2cc(O)ccc2c1=O.[Cl-]` [Compound 10d, 3-(7,3′,4′-trihydroxyflavon-3-yl)-propyltrimethylammoniumchloride] registered an IC50 in test [1] of 3.8 ± 0.1 µM. In addition, the “Atrium protection (250 μM)” value in test [3] was 33%. In addition, the TEAC in test [2] is on record as 5.1 ± 0.3 mM.

As to `O=c1c(O)c(-c2ccccc2)oc2cc(O)cc(O)c12` [Galangin, reference compound], half-maximal inhibition in test [1] (IC50) required 6 µM.

On to `O=c1c(O)c(-c2ccc(O)cc2)oc2cc(O)cc(O)c12` [Kaempferol, reference compound], for which, in test [1], half-maximal inhibition (IC50) was put at 6 µM.

In test [1], `O=c1cc(-c2ccc(O)c(O)c2)oc2cc(O)cc(O)c12` [Lutcolin, reference compound] returned a half-inhibitory concentration (IC50) of 17 µM.

In test [1], `O=c1c(O)c(-c2cc(O)c(O)c(O)c2)oc2cc(O)cc(O)c12` [Myricetin, reference compound] showed an IC50 of 10 µM.

Take `O=c1c(O)c(-c2ccc(O)c(O)c2)oc2cc(O)cc(O)c12` [Quercetin, reference compound]: the IC50 with OVCAR-3 cells (Homo sapiens) is 126 ± 50.5 µM; in test [1], 9 µM.

In test [1], `C[C@@H]1O[C@@H](OC[C@H]2O[C@@H](Oc3c(-c4ccc(O)c(O)c4)oc4cc(O)cc(O)c4c3=O)[C@H](O)[C@@H](O)[C@@H]2O)[C@H](O)[C@H](O)[C@H]1O` [Rutin, reference compound] came in with a concentration for half-maximal inhibition (IC50) of 10 µM.

`C[C@@H]1O[C@@H](OC[C@H]2O[C@@H](Oc3c(-c4ccc(O)c(O)c4)oc4cc(OCCO)cc(O)c4c3=O)[C@H](O)[C@@H](O)[C@@H]2O)[C@H](O)[C@H](O)[C@H]1O` [monoHER, 7-monohydroxyethylrutoside, reference compound] displayed an IC50 in test [1] of 12.7 ± 3.7 µM. The “Atrium protection (250 μM)” value in test [3] is 52%. The TEAC in test [2] is 3.0 ± 0.2 mM.

On to Fisetin [reference compound], for which the midpoint of inhibition in test [1], the IC50, lay at 16 µM.
